These results are taken from patent US20230104936A1, “TRPML MODULATORS” (Casma Therapeutics, Inc., priority 2019, published 2023).

Where only a bound is given, the exact number is not on record here.

By AC50 is commonly meant the concentration at which the activity in the assay is half-maximal. Read a high AC50 as activity only at high concentration.

For one experiment, the system named is TFEB. Nature of the experiment: TFEB nuclear translocation assay, HeLa wt cells. Format: cell-based. To be noted: 2 hrs compound treatment, Table 1 does not say HeLa wt or TRPML1 KO. A digest of the protocol:
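HeLa wt or TRPML1 KO cells treated 2 hrs with compounds at 37° C, fixed in 4% PFA, immunostained with anti-TFEB plus Alexa 488 secondary and Hoechst. Imaged at ×20, four fields/well; read-out is nuclear/perinuclear-ring TFEB intensity ratio, reported as AC50.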
Take `Cc1cnc(N2CCC(CN3CCC(F)(F)CC3)CC2)c(C(C)S(=O)(=O)c2ccc3c(c2)CCC3)c1` (single isomer, unassigned) [Compound A-1000, 2-(4-((4,4-difluoropiperidin-1-yl)methyl)piperidin-1-yl)-3-(1-((2,3-dihydro-1H-inden-5-yl)sulfonyl)ethyl)-5-methylpyridine]: the AC50 was not below 10 µM.

`CC(c1cccc(F)c1N1CCC(CN2CCC(F)(F)C2)CC1)S(=O)(=O)c1ccc(S(=O)(=O)N(C)C)cc1` (stereo not drawn) [Compound A-805, 4-((1-(2-(4-((3,3-difluoropyrrolidin-1-yl)methyl)piperidin-1-yl)-3-fluorophenyl)ethyl)sulfonyl)-N,N-dimethylbenzenesulfonamide] came in with an AC50 not above 2 µM.

The experiment is the same for the next values; noted with them: Homo sapiens, HeLa, 2 h, 2 hrs compound treatment, Table 1 does not say HeLa wt or TRPML1 KO.
In turn, `CN(C)S(=O)(=O)c1ccc(S(=O)(=O)n2cnc(N3CCC(c4ccc(Cl)cc4F)CC3)n2)cc1` [Compound A-62, 4-((3-(4-(4-chloro-2-fluorophenyl)piperidin-1-yl)-1H-1,2,4-triazol-1-yl)sulfonyl)-N,N-dimethylbenzenesulfonamide] returned an AC50 of 8.01 to 9.99 µM.

With `COCC1(C)CCN(c2ccccc2NS(=O)(=O)Cc2cccc(S(=O)(=O)COC)c2)CC1` [Compound A-744, 1-(3-methoxymethanesulfonylphenyl)-N-{2-[4-(methoxymethyl)-4-methylpiperidin-1-yl]phenyl}methanesulfonamide], the AC50 is not below 10 µM.

In the case of `CN1CC2(CCN(c3ccccc3NS(=O)(=O)c3ccc(S(C)(=O)=O)cc3)CC2)c2ncccc21` [Compound A-320, 4-methanesulfonyl-N-(2-{1′-methyl-1′,2′-dihydrospiro[piperidine-4,3′-pyrrolo[3,2-b]pyridin]-1-yl}phenyl)benzene-1-sulfonamide; formic acid], the AC50 was not below 10 µM. Same read-out and setting: then `CN(C)S(=O)(=O)c1ccc(S(=O)(=O)n2nc(C3CCN(c4c(F)cccc4F)CC3)c3c2CCCN3)cc1` [Compound A-503, 4-((3-(1-(2,6-difluorophenyl)piperidin-4-yl)-4,5,6,7-tetrahydro-1H-pyrazolo[4,3-b]pyridin-1-yl)sulfonyl)-N,N-dimethylbenzenesulfonamide], with not above 2 µM; and `CC(c1cccc(F)c1N1[C@@H]2CCC[C@H]1CC2)S(=O)(=O)c1ccc(S(=N)(=O)N(C)C)cc1` (single isomer, unassigned) [Compound A-988, 4-((1-(2-(8-azabicyclo[3.2.1]octan-8-yl)-3-fluorophenyl)ethyl)sulfonyl)-N,N-dimethylbenzenesulfonimidamide], with not below 10 µM. On the same count and under the same terms, the same measure for `CN(C)S(=O)(=O)c1ccc(S(=O)(=O)Nc2ccccc2N2CCCC3(CCCO3)C2)cc1` (stereo not drawn) [Compound A-497, N1,N1-dimethyl-N4-(2-{1-oxa-7-azaspiro[4.5]decan-7-yl}phenyl)benzene-1,4-disulfonamide]: not above 2 µM; for `COCCS(=O)(=O)c1ccc(S(=O)(=O)Nc2ccccc2N2CCC(c3ccc(Cl)cc3F)CC2)cc1` [Compound A-701, N-{2-[4-(4-chloro-2-fluorophenyl)piperidin-1-yl]phenyl}-4-(2-methoxyethanesulfonyl)benzene-1-sulfonamide]: not above 2 µM; for `C[C@H]1COC[C@H](C)N1CC1CCN(c2c(F)cccc2NS(=O)(=O)c2ccc(S(C)(=O)=O)cc2)CC1` (relative stereo) [Compound A-838, trans-N-(2-(4-((3,5-dimethylmorpholino)methyl)piperidin-1-yl)-3-fluorophenyl)-4-(methylsulfonyl)benzenesulfonamide]: not above 2 µM. Same read-out and setting: then `CN(C)S(=O)(=O)c1ccc(S(=O)(=O)Nc2ccccc2N2CCC(C3COCCO3)CC2)cc1` (stereo not drawn) [Compound A-437, N4-{2-[4-(1,4-dioxan-2-yl)piperidin-1-yl]phenyl}-N1,N1-dimethylbenzene-1,4-disulfonamide], with 2.01 to 8 µM. As to `COCC1(C)CCN(c2ccccc2NS(=O)(=O)c2cccc(C)c2)CC1` [Compound A-618, N-{2-[4-(methoxymethyl)-4-methylpiperidin-1-yl]phenyl}-3-methylbenzene-1-sulfonamide], the AC50 was 2.01 to 8 µM. The same measure, in the same setting: the same measure for `CN(C)S(=O)(=O)c1ccc(S(=O)(=O)Nc2ccccc2N2CCC3(CC2)OC(=O)c2cc(F)cnc23)cc1` [Compound A-473, N4-(2-{3-fluoro-5-oxo-5H-spiro[furo[3,4-b]pyridine-7,4′-piperidin]-1′-yl}phenyl)-N1,N1-dimethylbenzene-1,4-disulfonamide]: 2.01 to 8 µM; for `CN1CCN(c2ccccc2NS(=O)(=O)c2ccc(S(=O)(=O)N(C)C)cc2)CC1` [Compound A-54, N1,N1-dimethyl-N4-[2-(4-methylpiperazin-1-yl)phenyl]benzene-1,4-disulfonamide]: not below 10 µM; for `CC(C)(C)C(=O)N1CCN(c2ccccc2NS(=O)(=O)c2ccc(C(F)(F)C(F)(F)F)cc2)CC1` [Compound A-537, N-{2-[4-(2,2-dimethylpropanoyl)piperazin-1-yl]phenyl}-4-(1,1,2,2,2-pentafluoroethyl)benzene-1-sulfonamide]: 8.01 to 9.99 µM. Same read-out and setting: then `Cc1ccc(S(=O)(=O)Nc2ccccc2N2[C@@H]3CC[C@H]2C[C@@H](c2ccccc2F)C3)cc1` [Compound A-120, N-{2-[(1R,3R,5S)-3-(2-fluorophenyl)-8-azabicyclo[3.2.1]octan-8-yl]phenyl}-4-methylbenzene-1-sulfonamide], with not above 2 µM; and `CC(c1cccc(F)c1N1CCC(CN2C[C@@H](C)O[C@@H](C)C2)CC1)S(=O)(=O)c1ccc(S(=O)(=O)N(C)C)cc1` (stereo partly drawn) [Compound A-750, 4-{1-[2-(4-{[(2R,6S)-2,6-dimethylmorpholin-4-yl]methyl}piperidin-1-yl)-3-fluorophenyl]ethanesulfonyl}-N,N-dimethylbenzene-1-sulfonamide], with not above 2 µM. On to `COCC1(C)CCN(c2ccccc2NS(=O)(=O)Cc2cccc(C#N)c2)CC1` [Compound A-581, 1-(3-cyanophenyl)-N-{2-[4-(methoxymethyl)-4-methylpiperidin-1-yl]phenyl}methanesulfonamide], for which the AC50 lay within 2.01 to 8 µM. With `COCC1(C)CCN(c2ccccc2NS(=O)(=O)C2(c3ccccc3)CC2)CC1` [Compound A-649, N-{2-[4-(methoxymethyl)-4-methylpiperidin-1-yl]phenyl}-1-phenylcyclopropane-1-sulfonamide], the AC50 fell in the range of 2.01 to 8 µM. The same measure, in the same setting: then `CN1CC2(CCN(c3ccccc3NS(=O)(=O)c3ccc(S(=O)(=O)N(C)C)cc3)C(=O)C2)c2ccc(F)cc21` (stereo not drawn) [Compound A-472, N4-(2-{6-fluoro-1-methyl-2′-oxo-1,2-dihydrospiro[indole-3,4′-piperidin]-1′-yl}phenyl)-N1,N1-dimethylbenzene-1,4-disulfonamide], with not above 2 µM; and `CC1(C)Cc2cc(S(=O)(=O)Nc3cccc(F)c3N3CCC(CN4C5COCC4C5)CC3)ccc2O1` [Compound A-875, N-{3-fluoro-2-[4-({3-oxa-6-azabicyclo[3.1.1]heptan-6-yl}methyl)piperidin-1-yl]phenyl}-2,2-dimethyl-2,3-dihydro-1-benzofuran-5-sulfonamide], with not below 10 µM. Still for that read-out and setting: the same measure for `C[C@@H]1CN(CC2CCN(c3ccccc3NS(=O)(=O)c3ccc(S(=O)(=O)N(C)C)cc3)CC2)C[C@H](C)O1` [Compound A-544, N4-[2-(4-{[(2R,6S)-2,6-dimethylmorpholin-4-yl]methyl}piperidin-1-yl)phenyl]-N1,N1-dimethylbenzene-1,4-disulfonamide]: not above 2 µM; for `CC1(C)CC2(CCN(c3ccccc3NS(=O)(=O)c3ccc4c(c3)COC4)CC2)CO1` [Compound A-714, N-(2-{3,3-dimethyl-2-oxa-8-azaspiro[4.5]decan-8-yl}phenyl)-1,3-dihydro-2-benzofuran-5-sulfonamide]: 8.01 to 9.99 µM; for `CC1(C)CC2(CCN(c3ccccc3NS(=O)(=O)c3ccc4c(c3)CCC4)CC2)CO1` [Compound A-713, N-(2-{3,3-dimethyl-2-oxa-8-azaspiro[4.5]decan-8-yl}phenyl)-2,3-dihydro-1H-indene-5-sulfonamide]: not above 2 µM. The same measure, in the same setting: the same measure for `O=S(=O)(Nc1cccc(F)c1N1CCC(CN2C3CCC2COC3)CC1)c1ccc2c(c1)CCC2` [Compound A-882, N-{3-fluoro-2-[4-({3-oxa-8-azabicyclo[3.2.1]octan-8-yl}methyl)piperidin-1-yl]phenyl}-2,3-dihydro-1H-indene-5-sulfonamide]: not above 2 µM; for `COc1ccc(S(=O)(=O)Nc2ccccc2N2CCC(c3ncc(Cl)cc3F)CC2)cc1` [Compound A-147, N-{2-[4-(5-chloro-3-fluoropyridin-2-yl)piperidin-1-yl]phenyl}-4-methoxybenzene-1-sulfonamide]: 2.01 to 8 µM. `CN(C)S(=O)(=O)c1ccc(S(=O)(=O)Nc2ccccc2N2CCC(C3CCCO3)CC2)cc1` (stereo not drawn) [Compound A-419, N1,N1-dimethyl-N4-{2-[4-(oxolan-2-yl)piperidin-1-yl]phenyl}benzene-1,4-disulfonamide] registered an AC50 not above 2 µM.

`Cc1nn(C)c(C2=CCN(c3ccc(Cl)cc3F)CC2)c1NS(=O)(=O)c1ccc(S(=O)(=O)N(C)C)cc1` [Compound A-29, N1-(5-(1-(4-chloro-2-fluorophenyl)-1,2,3,6-tetrahydropyridin-4-yl)-1,3-dimethyl-1H-pyrazol-4-yl)-N4,N4-dimethylbenzene-1,4-disulfonamide] had an AC50 not below 10 µM. Turning to `CN(C(=O)C1CCN(c2ccccc2NS(=O)(=O)c2ccc(S(=O)(=O)N(C)C)cc2)CC1)c1ccccc1` [Compound A-339, 1-{2-[4-(dimethylsulfamoyl)benzenesulfonamido]phenyl}-N-methyl-N-phenylpiperidine-4-carboxamide], the AC50 lay in the range of 2.01 to 8 µM.

In turn, `CC(=O)NC1(c2ccc(Cl)cc2F)CCN(c2ccccc2NS(=O)(=O)c2ccc(S(=O)(=O)N(C)C)cc2)CC1` [Compound A-153, N-[4-(4-chloro-2-fluorophenyl)-1-{2-[4-(dimethylsulfamoyl)benzenesulfonamido]phenyl}piperidin-4-yl]acetamide] displayed an AC50 of 2.01 to 8 µM.
